Reference: ChEMBL document CHEMBL4177524, “Discovery of hepatitis B virus capsid assembly inhibitors leading to a heteroaryldihydropyrimidine based clinical candidate (GLS4)” (Bioorg Med Chem, 2017)

Tests used:
[1] = molecular target: Oxysterols receptor LXR-beta (Homo sapiens) (UniProt P55055); experiment: Antagonist activity at LXRbeta (unknown origin) at 1 uM
[2] = test system: Mus musculus; experiment: Biotransformation in po dosed mouse assessed as (S)-Ethyl 4-(2-bromo-4-fluorophenyl)-6-(morpholinomethyl)-2-(thiazol-2-yl)-1,4-dihydropyrimidine-5-carboxylate formation; type: ADME, organism-based; conditions: in vivo
[3] = AUC (0 to 24 hrs) in beagle dog at 45 mg/kg, po by LC/MS/MS analysis; type: ADME, organism-based, Canis lupus familiaris; parameters: time < 24 hr, dose 45 mg/kg, route oral; conditions: in vivo
[4] = Drug uptake in beagle dog liver by LC/MS/MS analysis; type: ADME, tissue-based, Canis lupus familiaris; conditions: in vivo
[5] = molecular target: Trypsin (Homo sapiens) (UniProt P07477+P07478+P35030); experiment: Inhibition of trypsin (unknown origin) at 1 uM; type: protein assay
[6] = Volume of distribution at steady state in beagle dog at 5 mg/kg, iv by LC/MS/MS analysis; type: ADME, organism-based, Canis lupus familiaris; conditions: in vivo, read-out: Vdss
[7] = test system: Canis familiaris; experiment: Cmax in beagle dog at 15 mg/kg, po by LC/MS/MS analysis; type: ADME, organism-based, Canis lupus familiaris; parameters: dose 15 mg/kg, route oral; conditions: in vivo
[8] = in vivo; conditions: beagle, dog, po, 45 mg/kg
Description: Half life in beagle dog at 45 mg/kg, po by LC/MS/MS analysis

[9] = AUC (0 to 24 hrs) in beagle dog at 15 mg/kg, po for 7 days by LC/MS/MS analysis; type: ADME, organism-based, Canis lupus familiaris; parameters: time < 24 hr, dose 15 mg/kg, route oral; conditions: in vivo
[10] = AUC (0 to 24 hrs) in beagle dog at 5 mg/kg, po by LC/MS/MS analysis; type: ADME, organism-based, Canis lupus familiaris; parameters: time < 24 hr, dose 5 mg/kg, route oral; conditions: in vivo
[11] = organism: Homo sapiens; experiment: Inhibition of lipase (unknown origin) at 1 uM
[12] = molecular target: Mitogen-activated protein kinase 3 (Homo sapiens) (UniProt P27361); experiment: Inhibition of ERK1 (unknown origin) at 1 uM
[13] = Clearance in beagle dog at 5 mg/kg, iv by LC/MS/MS analysis; type: ADME, organism-based, Canis lupus familiaris; conditions: in vivo
[14] = molecular target: Death-associated protein kinase 1 (Homo sapiens) (UniProt P53355); experiment: Inhibition of DAPK1 (unknown origin) at 1 uM
[15] = molecular target: Low molecular weight phosphotyrosine protein phosphatase (Homo sapiens) (UniProt P24666); experiment: Inhibition of ACP1 (unknown origin) at 1 uM
[16] = molecular target: Receptor-type tyrosine-protein kinase FLT3 (Homo sapiens) (UniProt P36888); experiment: Inhibition of FLT3 (unknown origin) at 1 uM
[17] = test system: Canis familiaris; experiment: Biotransformation in po dosed beagle dog assessed as (S)-Ethyl 4-(2-bromo-4-fluorophenyl)-6-(morpholinomethyl)-2-(thiazol-2-yl)-1,4-dihydropyrimidine-5-carboxylate formation; type: ADME, organism-based, Canis lupus familiaris; conditions: in vivo
[18] = organism: Homo sapiens; experiment: Inhibition of calcium channel (unknown origin) at 1 uM
[19] = in vivo; conditions: beagle, dog, po, 5 mg/kg
[20] = molecular target: Protein kinase C alpha type (Homo sapiens) (UniProt P17252); experiment: Inhibition of PKCalpha (unknown origin) at 1 uM
[21] = molecular target: NAD-dependent protein deacetylase sirtuin-1 (Homo sapiens) (UniProt Q96EB6); experiment: Inhibition of SIRT1 (unknown origin) at 1 uM
[22] = molecular target: Bile acid receptor (Homo sapiens) (UniProt Q96RI1); experiment: Agonist activity at FXR (unknown origin) at 1 uM
[23] = molecular target: Calcium/calmodulin-dependent protein kinase type II subunit delta (Homo sapiens) (UniProt Q13557); experiment: Inhibition of CAMK2D (unknown origin) at 1 uM
[24] = molecular target: Tyrosine-protein kinase ABL1 (Homo sapiens) (UniProt P00519); experiment: Inhibition of ABL1 (unknown origin) at 1 uM
[25] = molecular target: Sodium/potassium-transporting ATPase (Homo sapiens) (UniProt P05023+P14415+P05026+P50993+P54709+P13637+Q13733+P54710); experiment: Inhibition of Sodium/potassium-transporting ATPase (unknown origin) at 1 uM; type: protein-complex assay
[26] = molecular target: Interleukin-8 receptors, CXCR1/CXCR2 (Homo sapiens) (UniProt P25025+P25024); experiment: Inhibition of CXCR1/2 (unknown origin) at 1 uM; type: protein assay
[27] = molecular target: D(1A) dopamine receptor (Homo sapiens) (UniProt P21728); experiment: Inhibition of dopamine D1 receptor (unknown origin) at 1 uM
[28] = molecular target: Nitric oxide synthase, inducible (Homo sapiens) (UniProt P35228); experiment: Inhibition of iNOS (unknown origin) at 1 uM
[29] = molecular target: Epidermal growth factor receptor (Homo sapiens) (UniProt P00533); experiment: Inhibition of EGFR (unknown origin) at 1 uM
[30] = molecular target: Tyrosine-protein kinase JAK2 (Homo sapiens) (UniProt O60674); experiment: Inhibition of JAK2 (unknown origin) at 1 uM
[31] = Drug uptake in beagle dog lung by LC/MS/MS analysis; type: ADME, tissue-based, Canis lupus familiaris; conditions: in vivo
[32] = test system: Canis familiaris; experiment: Cmax in beagle dog at 45 mg/kg, po by LC/MS/MS analysis; type: ADME, organism-based, Canis lupus familiaris; parameters: dose 45 mg/kg, route oral; conditions: in vivo
[33] = organism: Homo sapiens; experiment: Inhibition of proteasome (unknown origin) at 1 uM
[34] = molecular target: Disintegrin and metalloproteinase domain-containing protein 17 (Homo sapiens) (UniProt P78536); experiment: Inhibition of TACE (unknown origin) at 1 uM
[35] = molecular target: RAC-alpha serine/threonine-protein kinase (Homo sapiens) (UniProt P31749); experiment: Inhibition of AKT1 (unknown origin) at 1 uM
[36] = Half life in beagle dog at 5 mg/kg, iv by LC/MS/MS analysis; conditions: in vivo
[37] = molecular target: 72 kDa type IV collagenase (Homo sapiens) (UniProt P08253); experiment: Inhibition of MMP2 (unknown origin) at 1 uM
[38] = molecular target: Proto-oncogene tyrosine-protein kinase Src (Homo sapiens) (UniProt P12931); experiment: Inhibition of SRC (unknown origin) at 1 uM
[39] = in vivo; conditions: beagle, dog, po, 15 mg/kg
Description: Half life in beagle dog at 15 mg/kg, po for 7 days by LC/MS/MS analysis

[40] = molecular target: Bile acid receptor (Homo sapiens) (UniProt Q96RI1); experiment: Antagonist activity at FXR (unknown origin) at 1 uM
[41] = molecular target: Sodium-dependent serotonin transporter (Homo sapiens) (UniProt P31645); experiment: Inhibition of 5-Serotonin transporter (unknown origin) at 1 uM
[42] = molecular target: Adenosine receptor A1 (Homo sapiens) (UniProt P30542); experiment: Inhibition of adenosine receptor A1 (unknown origin) at 1 uM
[43] = Drug uptake in beagle dog brain by LC/MS/MS analysis; type: ADME, tissue-based, Canis lupus familiaris; conditions: in vivo
[44] = organism: Homo sapiens; experiment: Inhibition of neural phospholipase (unknown origin) at 1 uM
[45] = molecular target: Core antigen (Hepatitis B virus) (UniProt Q03732); experiment: Inhibition of hepatitis B virus capsid assembly infected in human HepG2.215 cells assessed as reduction in viral DNA replication measured on day 7 by real time PCR analysis; type: cell-based
[46] = AUC (0 to 24 hrs) in beagle dog at 5 mg/kg, iv by LC/MS/MS analysis; type: ADME, organism-based, Canis lupus familiaris; parameters: dose 5 mg/kg, time < 24 hr, route intravenous; conditions: in vivo
[47] = molecular target: Prostaglandin G/H synthase 1 (Homo sapiens) (UniProt P23219); experiment: Inhibition of COX-1 (unknown origin) at 1 uM
[48] = Drug uptake in beagle dog heart by LC/MS/MS analysis; type: ADME, tissue-based, Canis lupus familiaris; conditions: in vivo
[49] = AUC (0 to 24 hrs) in beagle dog at 15 mg/kg, po by LC/MS/MS analysis; type: ADME, organism-based, Canis lupus familiaris; parameters: dose 15 mg/kg, time < 24 hr, route oral; conditions: in vivo
[50] = Toxicity in beagle dog administered via oral gavage for 28 days; type: organism-based, Canis lupus familiaris; conditions: in vivo
[51] = molecular target: Oxysterols receptor LXR-beta (Homo sapiens) (UniProt P55055); experiment: Agonist activity at LXRbeta (unknown origin) at 1 uM
[52] = molecular target: Tyrosine-protein kinase ZAP-70 (Homo sapiens) (UniProt P43403); experiment: Inhibition of ZA70 (unknown origin) at 1 uM
[53] = test system: Canis familiaris; experiment: Biotransformation in po dosed beagle dog assessed as (R)-Ethyl 4-(2-bromo-4-fluorophenyl)-6-(morpholinomethyl)-2-(thiazol-2-yl)-1,4-dihydropyrimidine-5-carboxylate formation; type: ADME, organism-based, Canis lupus familiaris; conditions: in vivo
[54] = test system: Canis familiaris; experiment: Cmax in beagle dog at 15 mg/kg, po for 7 days by LC/MS/MS analysis; type: ADME, organism-based, Canis lupus familiaris; parameters: dose 15 mg/kg, route oral; conditions: in vivo, 168 h
[55] = Half life in beagle dog at 5 mg/kg, po by LC/MS/MS analysis; conditions: in vivo
[56] = in vivo; conditions: beagle, dog, po, 15 mg/kg; remark: listed apart in the source
Description: Half life in beagle dog at 15 mg/kg, po by LC/MS/MS analysis

[57] = test system: Mus musculus; experiment: Biotransformation in po dosed mouse assessed as (R)-Ethyl 4-(2-bromo-4-fluorophenyl)-6-(morpholinomethyl)-2-(thiazol-2-yl)-1,4-dihydropyrimidine-5-carboxylate formation; type: ADME, organism-based; conditions: in vivo
[58] = molecular target: Platelet-activating factor receptor (Homo sapiens) (UniProt P25105); experiment: Inhibition of platelet-activating factor receptor (unknown origin) at 1 uM
[59] = test system: Canis familiaris; experiment: Cmax in beagle dog at 5 mg/kg, po by LC/MS/MS analysis; type: ADME, organism-based, Canis lupus familiaris; parameters: dose 5 mg/kg, route oral; conditions: in vivo

Oxysterols receptor LXR-beta (Homo sapiens), sequence (P55055 whole entry): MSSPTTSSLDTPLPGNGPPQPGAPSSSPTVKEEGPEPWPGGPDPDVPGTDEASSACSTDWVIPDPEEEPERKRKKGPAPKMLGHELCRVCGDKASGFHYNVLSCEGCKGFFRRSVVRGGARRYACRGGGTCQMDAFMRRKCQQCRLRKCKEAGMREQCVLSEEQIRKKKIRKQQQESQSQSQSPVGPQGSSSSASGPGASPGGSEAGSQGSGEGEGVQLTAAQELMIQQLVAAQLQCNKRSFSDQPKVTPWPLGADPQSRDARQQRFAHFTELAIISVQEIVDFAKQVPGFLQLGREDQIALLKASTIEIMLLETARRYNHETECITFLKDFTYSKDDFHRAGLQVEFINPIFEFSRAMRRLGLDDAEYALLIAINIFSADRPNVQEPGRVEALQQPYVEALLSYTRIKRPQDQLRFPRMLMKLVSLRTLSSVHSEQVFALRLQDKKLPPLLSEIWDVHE
Bile acid receptor (Homo sapiens), sequence (Q96RI1 whole entry): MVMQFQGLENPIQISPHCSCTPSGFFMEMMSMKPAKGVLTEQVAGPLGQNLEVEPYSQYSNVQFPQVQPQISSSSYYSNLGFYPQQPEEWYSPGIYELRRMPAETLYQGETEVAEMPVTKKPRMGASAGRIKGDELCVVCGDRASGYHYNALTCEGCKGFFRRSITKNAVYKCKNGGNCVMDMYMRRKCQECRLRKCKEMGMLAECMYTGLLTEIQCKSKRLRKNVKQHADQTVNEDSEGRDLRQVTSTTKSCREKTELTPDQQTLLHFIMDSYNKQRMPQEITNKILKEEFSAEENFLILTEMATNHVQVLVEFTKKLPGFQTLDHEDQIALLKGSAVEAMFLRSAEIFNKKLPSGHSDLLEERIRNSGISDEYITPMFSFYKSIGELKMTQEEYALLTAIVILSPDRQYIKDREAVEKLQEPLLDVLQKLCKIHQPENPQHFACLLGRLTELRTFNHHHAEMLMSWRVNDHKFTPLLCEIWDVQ
RAC-alpha serine/threonine-protein kinase (Homo sapiens), sequence (P31749 whole entry): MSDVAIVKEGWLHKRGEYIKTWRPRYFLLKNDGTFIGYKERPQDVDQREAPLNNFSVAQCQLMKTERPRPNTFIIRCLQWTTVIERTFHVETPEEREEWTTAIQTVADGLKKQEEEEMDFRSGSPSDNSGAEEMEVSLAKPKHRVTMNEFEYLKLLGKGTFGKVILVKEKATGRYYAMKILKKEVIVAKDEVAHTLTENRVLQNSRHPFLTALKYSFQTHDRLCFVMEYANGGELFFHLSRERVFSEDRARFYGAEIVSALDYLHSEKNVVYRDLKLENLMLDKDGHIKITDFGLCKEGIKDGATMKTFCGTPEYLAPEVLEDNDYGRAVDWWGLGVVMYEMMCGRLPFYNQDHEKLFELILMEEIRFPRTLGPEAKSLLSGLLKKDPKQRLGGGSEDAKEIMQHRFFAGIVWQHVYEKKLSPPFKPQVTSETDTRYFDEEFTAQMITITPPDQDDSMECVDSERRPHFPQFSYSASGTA
Mitogen-activated protein kinase 3 (Homo sapiens), sequence (P27361 whole entry): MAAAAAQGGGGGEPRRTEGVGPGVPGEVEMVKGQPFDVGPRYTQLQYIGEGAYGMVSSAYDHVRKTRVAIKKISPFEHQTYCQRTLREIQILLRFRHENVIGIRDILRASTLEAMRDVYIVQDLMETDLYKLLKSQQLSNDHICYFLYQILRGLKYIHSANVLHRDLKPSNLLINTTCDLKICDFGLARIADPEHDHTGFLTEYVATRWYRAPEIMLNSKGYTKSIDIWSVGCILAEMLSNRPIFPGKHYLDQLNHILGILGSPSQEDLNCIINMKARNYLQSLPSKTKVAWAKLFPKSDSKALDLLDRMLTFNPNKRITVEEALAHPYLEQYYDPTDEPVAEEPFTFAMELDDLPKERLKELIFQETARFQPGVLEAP
Disintegrin and metalloproteinase domain-containing protein 17 (Homo sapiens), sequence (P78536 whole entry, the tested form may be a part): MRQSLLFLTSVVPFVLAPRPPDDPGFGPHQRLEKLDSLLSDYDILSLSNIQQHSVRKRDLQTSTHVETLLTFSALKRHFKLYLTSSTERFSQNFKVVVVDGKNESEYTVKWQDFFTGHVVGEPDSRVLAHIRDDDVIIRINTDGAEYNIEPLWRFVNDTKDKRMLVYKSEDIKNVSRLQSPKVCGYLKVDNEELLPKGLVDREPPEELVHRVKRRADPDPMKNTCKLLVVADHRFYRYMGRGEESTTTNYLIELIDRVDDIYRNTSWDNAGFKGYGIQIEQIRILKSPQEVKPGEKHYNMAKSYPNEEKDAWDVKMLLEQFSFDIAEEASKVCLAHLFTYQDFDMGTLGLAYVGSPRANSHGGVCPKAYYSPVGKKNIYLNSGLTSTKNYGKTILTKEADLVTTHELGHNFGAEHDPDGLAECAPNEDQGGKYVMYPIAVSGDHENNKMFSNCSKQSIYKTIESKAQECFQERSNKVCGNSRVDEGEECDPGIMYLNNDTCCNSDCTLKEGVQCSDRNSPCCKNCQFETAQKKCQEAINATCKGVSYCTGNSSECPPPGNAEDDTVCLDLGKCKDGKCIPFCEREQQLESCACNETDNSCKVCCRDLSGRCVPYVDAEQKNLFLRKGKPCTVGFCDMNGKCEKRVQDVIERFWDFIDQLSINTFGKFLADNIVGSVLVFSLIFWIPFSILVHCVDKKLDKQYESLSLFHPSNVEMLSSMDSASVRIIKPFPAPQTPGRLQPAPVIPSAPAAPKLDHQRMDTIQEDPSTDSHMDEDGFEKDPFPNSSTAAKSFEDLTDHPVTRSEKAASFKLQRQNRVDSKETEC
Death-associated protein kinase 1 (Homo sapiens), sequence (P53355 whole entry, looked up): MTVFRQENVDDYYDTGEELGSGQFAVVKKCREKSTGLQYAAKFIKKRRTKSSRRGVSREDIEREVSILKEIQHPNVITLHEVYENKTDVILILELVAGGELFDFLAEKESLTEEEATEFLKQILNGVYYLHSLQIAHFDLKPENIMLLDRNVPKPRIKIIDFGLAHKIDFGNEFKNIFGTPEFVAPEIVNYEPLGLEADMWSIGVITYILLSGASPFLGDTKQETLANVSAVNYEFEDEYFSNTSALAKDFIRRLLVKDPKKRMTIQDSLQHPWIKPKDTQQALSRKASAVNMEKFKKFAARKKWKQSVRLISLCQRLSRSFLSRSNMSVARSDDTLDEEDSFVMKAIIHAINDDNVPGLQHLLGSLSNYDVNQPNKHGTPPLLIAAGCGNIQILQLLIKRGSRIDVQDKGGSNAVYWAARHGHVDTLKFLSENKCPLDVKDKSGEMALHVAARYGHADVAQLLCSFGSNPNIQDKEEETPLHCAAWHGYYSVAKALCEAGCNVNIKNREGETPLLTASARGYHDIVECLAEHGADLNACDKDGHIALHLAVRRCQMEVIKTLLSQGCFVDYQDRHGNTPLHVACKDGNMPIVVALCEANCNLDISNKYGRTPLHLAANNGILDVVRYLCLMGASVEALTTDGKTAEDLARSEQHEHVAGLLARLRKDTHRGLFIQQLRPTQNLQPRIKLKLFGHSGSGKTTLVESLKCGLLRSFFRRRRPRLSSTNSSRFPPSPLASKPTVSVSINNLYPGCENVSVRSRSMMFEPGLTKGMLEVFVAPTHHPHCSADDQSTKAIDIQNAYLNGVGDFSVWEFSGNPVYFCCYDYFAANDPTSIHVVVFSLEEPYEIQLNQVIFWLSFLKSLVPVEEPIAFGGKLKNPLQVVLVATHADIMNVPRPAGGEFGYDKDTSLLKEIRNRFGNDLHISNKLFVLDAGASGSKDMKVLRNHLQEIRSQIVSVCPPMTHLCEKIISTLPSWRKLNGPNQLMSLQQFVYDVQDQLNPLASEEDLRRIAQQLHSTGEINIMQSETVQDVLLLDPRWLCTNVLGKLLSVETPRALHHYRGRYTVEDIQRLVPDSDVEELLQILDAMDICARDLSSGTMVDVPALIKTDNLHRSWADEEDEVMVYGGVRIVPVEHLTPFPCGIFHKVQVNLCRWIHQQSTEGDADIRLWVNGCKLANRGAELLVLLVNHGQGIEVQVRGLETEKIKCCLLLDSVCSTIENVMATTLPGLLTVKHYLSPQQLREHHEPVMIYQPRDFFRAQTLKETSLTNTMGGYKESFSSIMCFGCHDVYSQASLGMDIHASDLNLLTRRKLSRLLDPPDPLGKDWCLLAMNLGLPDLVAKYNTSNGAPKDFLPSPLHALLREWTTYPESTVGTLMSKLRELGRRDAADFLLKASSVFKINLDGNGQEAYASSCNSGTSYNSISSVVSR
Receptor-type tyrosine-protein kinase FLT3 (Homo sapiens), sequence (P36888 whole entry): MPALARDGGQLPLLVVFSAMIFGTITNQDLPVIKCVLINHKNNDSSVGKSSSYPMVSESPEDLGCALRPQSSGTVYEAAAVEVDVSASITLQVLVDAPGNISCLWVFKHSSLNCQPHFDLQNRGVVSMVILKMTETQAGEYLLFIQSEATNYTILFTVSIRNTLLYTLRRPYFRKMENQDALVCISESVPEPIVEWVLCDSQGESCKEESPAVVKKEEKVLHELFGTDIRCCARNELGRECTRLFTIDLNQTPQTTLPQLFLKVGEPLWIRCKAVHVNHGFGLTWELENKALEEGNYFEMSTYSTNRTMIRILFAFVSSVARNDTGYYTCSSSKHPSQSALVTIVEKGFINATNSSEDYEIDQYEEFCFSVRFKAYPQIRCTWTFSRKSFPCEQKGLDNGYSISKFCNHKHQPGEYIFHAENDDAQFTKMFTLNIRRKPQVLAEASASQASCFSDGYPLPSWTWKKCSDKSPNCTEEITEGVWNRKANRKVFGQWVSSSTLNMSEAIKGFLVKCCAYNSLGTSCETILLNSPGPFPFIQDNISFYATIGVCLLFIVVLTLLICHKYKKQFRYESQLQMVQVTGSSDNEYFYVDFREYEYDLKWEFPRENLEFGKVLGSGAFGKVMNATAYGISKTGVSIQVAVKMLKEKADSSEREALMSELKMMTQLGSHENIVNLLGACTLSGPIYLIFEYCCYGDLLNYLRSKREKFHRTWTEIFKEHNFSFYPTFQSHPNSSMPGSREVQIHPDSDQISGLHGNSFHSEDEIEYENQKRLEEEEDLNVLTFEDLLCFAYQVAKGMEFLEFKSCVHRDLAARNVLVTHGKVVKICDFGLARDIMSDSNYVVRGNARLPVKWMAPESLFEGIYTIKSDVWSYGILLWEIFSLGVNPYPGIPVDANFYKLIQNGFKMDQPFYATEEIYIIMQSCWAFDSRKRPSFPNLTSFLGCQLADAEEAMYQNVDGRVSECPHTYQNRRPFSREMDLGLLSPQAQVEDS

CCOC(=O)C1=C(CN2CCOCC2)NC(c2nccs2)=NC1c1ccc(F)cc1Br (centres undefined)
inhibition [1]: -7%
Drug metabolism [2]: Metabolite_Notdetected
AUC(0-t) at 24 h [3]: 8470 ng·h/mL
Drug uptake [4]: Active
inhibition [5]: 4%
Vd [6]: 6.86 L/kg
Cmax [7]: 698 ng/mL
half-life [8]: 377 min
AUC at 24 h [9]: 2830 ng·h/mL
AUC(0-t) at 24 h [10]: 695 ng·h/mL
inhibition [11]: 4%
inhibition [12]: 7%
clearance [13]: 17.9 mL/min/kg
inhibition [14]: 3%
inhibition [15]: -4%
inhibition [16]: 4%
Drug metabolism [17]: Metabolite_Notdetected
inhibition [18]: -6%
bioavailability [19]: 15.6%
inhibition [20]: 1%
inhibition [21]: 7%
Activity [22]: 2%
inhibition [23]: 11%
inhibition [24]: 2%
inhibition [25]: 4%
inhibition [26]: 8%
inhibition [27]: 7%
inhibition [28]: 7%
inhibition [29]: 0%
inhibition [30]: 25%
Drug uptake [31]: Not Active
Cmax [32]: 1180 ng/mL
inhibition [33]: 2%
inhibition [34]: 2%
inhibition [35]: -3%
half-life [36]: 591 min
inhibition [37]: -3%
inhibition [38]: -3%
half-life at 168 h [39]: 568 min
inhibition [40]: 4%
inhibition [41]: -1%
inhibition [42]: 1%
Drug uptake [43]: Not Active
inhibition [44]: 9%
EC90 [45]: 6 nM
AUC(0-t) at 24 h [46]: 4350 ng·h/mL
inhibition [47]: -10%
Drug uptake [48]: Not Active
AUC(0-t) at 24 h [49]: 2760 ng·h/mL
NOAEL at 672 h [50]: 10 mg/kg
Activity [51]: 5%
inhibition [52]: 9%
Drug metabolism [53]: Metabolite_Notdetected
Cmax [54]: 524 ng/mL
half-life [55]: 415 min
half-life [56]: 439 min
Drug metabolism [57]: Metabolite_Notdetected
inhibition [58]: 10%
Cmax [59]: 136 ng/mL
